Values after ≈ are worked out from the molar mass of the structure shown.

By IC50 is commonly meant the concentration at which inhibition is half-maximal. Lower therefore signals greater potency. The Ki is a dissociation constant, usually derived from enzyme kinetics or from competition with a known ligand. Read a high Ki as lower affinity. In general, EC50 refers to the concentration needed to bring the measured effect to its halfway point. A higher EC50 goes with a need for much substance. Broadly, the MIC is the lowest concentration found to suppress growth.

For test [1], the target named is Kappa-type opioid receptor (Homo sapiens, UniProt P41145). Kind of test: Antagonist at KOR expressed in human U2OS cells measured by High content imaging based beta-arrestin translocation assay. It is filed as cell-based.
Chain of Kappa-type opioid receptor (P41145 whole entry): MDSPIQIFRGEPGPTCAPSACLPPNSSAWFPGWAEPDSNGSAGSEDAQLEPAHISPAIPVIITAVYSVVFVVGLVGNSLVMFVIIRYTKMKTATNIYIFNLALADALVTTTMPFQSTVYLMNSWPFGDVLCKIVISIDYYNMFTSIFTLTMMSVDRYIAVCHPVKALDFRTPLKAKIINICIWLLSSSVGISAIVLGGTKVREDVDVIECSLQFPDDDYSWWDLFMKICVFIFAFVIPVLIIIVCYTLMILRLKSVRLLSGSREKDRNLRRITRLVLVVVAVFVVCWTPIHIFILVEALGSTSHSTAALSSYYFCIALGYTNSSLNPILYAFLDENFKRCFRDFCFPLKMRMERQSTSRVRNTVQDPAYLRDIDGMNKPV
For the next test, the target named is T1, Alpha amylase (Homo sapiens, UniProt P0DUB6).
T1 sequence (P0DUB6 whole entry): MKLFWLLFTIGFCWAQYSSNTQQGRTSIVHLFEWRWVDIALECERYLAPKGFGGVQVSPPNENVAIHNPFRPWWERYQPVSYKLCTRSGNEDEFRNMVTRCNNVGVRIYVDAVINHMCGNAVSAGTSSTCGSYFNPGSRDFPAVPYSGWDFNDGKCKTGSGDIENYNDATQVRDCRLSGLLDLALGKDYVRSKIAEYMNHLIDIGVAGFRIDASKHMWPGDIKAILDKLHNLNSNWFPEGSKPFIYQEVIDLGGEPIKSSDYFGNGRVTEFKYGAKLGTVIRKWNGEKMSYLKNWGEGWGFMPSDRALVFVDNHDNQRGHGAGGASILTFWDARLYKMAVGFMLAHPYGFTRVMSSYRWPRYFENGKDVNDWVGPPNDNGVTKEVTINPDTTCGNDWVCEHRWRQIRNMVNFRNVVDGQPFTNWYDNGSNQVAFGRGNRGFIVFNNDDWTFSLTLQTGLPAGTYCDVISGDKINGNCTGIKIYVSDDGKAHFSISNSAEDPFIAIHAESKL
Description: Inhibition of alpha-amylase (unknown origin).

Test [2] concerns the target T2, Phospholipase A2, membrane associated (Homo sapiens, UniProt P14555).
T2 sequence (P14555 whole entry): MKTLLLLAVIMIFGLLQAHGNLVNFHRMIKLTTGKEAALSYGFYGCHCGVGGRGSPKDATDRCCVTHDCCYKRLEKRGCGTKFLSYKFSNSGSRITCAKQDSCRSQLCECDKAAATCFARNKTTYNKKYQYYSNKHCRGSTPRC
Kind of test: Inhibition of human PLA2G2A.

Test [3] has as its target T3, Group XIIA secretory phospholipase A2 (Homo sapiens, UniProt Q9BZM1).
T3 sequence (Q9BZM1 whole entry): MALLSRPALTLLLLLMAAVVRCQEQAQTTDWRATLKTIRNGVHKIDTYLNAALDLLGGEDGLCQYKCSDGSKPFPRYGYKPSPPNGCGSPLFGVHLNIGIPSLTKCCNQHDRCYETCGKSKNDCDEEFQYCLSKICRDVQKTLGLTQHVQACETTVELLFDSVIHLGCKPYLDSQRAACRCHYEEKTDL
Kind of test: Inhibition of human PLA2G12A.

Test [4] concerns the target Phospholipase A2, major isoenzyme (Sus scrofa, UniProt P00592). Description: Inhibition of porcine PLA2G1B.
In another test the target is T4, Phospholipase A2 group V (Homo sapiens, UniProt P39877).
T4 sequence (P39877 whole entry): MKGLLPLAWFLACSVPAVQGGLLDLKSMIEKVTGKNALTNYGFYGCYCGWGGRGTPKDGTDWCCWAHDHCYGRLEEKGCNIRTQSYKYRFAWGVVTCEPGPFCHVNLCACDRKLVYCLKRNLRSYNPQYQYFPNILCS
Description: Inhibition of human PLA2G5.

For test [5], the target named is T5, Group 10 secretory phospholipase A2 (Homo sapiens, UniProt O15496).
T5 sequence (O15496 whole entry): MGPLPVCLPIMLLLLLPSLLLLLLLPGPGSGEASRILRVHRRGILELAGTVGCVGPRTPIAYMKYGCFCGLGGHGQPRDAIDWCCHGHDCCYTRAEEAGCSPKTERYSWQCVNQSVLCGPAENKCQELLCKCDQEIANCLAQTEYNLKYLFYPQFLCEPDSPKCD
Description: Inhibition of human PLA2G10.

The test system of a further test is HeLa. Description: Antiproliferative activity against human HeLa cells. The test is classed as functional, cell-based.
Another test relates to HT-29. Kind of test: Antiproliferative activity against human HT-29 cells. The test is classed as functional, cell-based.
For the next test, the system named is SMMC-7721. Description: Antiproliferative activity against human SMMC-7721 cells. The test is classed as functional, cell-based.
The next test concerns HeLa S3. Description: Cytotoxicity against human HeLa S3 cells. The test is classed as functional, cell-based.
Another test concerns Salmonella typhimurium. Kind of test: Antibacterial activity against Salmonella typhimurium assessed as diameter zone of inhibition. The test is classed as functional, Salmonella enterica subsp. enterica serovar Typhimurium.
Test [6] relates to Staphylococcus aureus. Description: Antibacterial activity against Staphylococcus aureus assessed as diameter zone of inhibition. The test is classed as functional.
In test [7] the test system is Pseudomonas aeruginosa. Description: Antibacterial activity against Pseudomonas aeruginosa assessed as diameter zone of inhibition. It is filed as functional.
Another test relates to Streptococcus pneumoniae. Description: Antibacterial activity against Streptococcus pneumoniae assessed as diameter zone of inhibition. It is filed as functional.
The subject of another test is Bacillus subtilis. Description: Antibacterial activity against Bacillus subtilis assessed as diameter zone of inhibition. The test is classed as functional.
For test [8], the system named is Escherichia coli. Description: Antibacterial activity against Escherichia coli assessed as diameter zone of inhibition. It is filed as functional.
The target in test [9] is Glutamate [NMDA] receptor. Description: Displacement of [3H]DCKA from NMDA receptor (unknown origin). It is filed as protein-complex assay, Homo sapiens.
The target of test [10] is Glutamate [NMDA] receptor (Homo sapiens) (UniProt Q05586+Q12879+Q13224+O15399+O60391+Q14957+Q8TCU5). Kind of test: Displacement of [3H]DCKA from NMDA receptor (unknown origin) at 10 ng/ml relative to control. The test is classed as protein-complex assay. The note with it: filed as antagonist. (In general: In a radioligand displacement assay an active substance lowers the binding of a labelled ligand.)

A further test addresses Trypsin (Homo sapiens, UniProt P07477+P07478+P35030). Kind of test: Inhibition of trypsin (unknown origin). The test is classed as protein assay.
Test [11] addresses Glutamate receptor ionotropic AMPA (Homo sapiens, UniProt P42261+P42262+P42263+P48058). Description: Antagonist activity at AMPA receptor (unknown origin). The test is classed as protein-complex assay.
A further test relates to Toxoplasma gondii. Kind of test: Anti-tachyzoite activity against Toxoplasma gondii at 100 uM. It is filed as functional, type III.
In another test the test system is Candida. Kind of test: Antifungal activity against Candida species. The test is classed as functional.
In test [12] the test system is Escherichia coli. Description: Antibacterial activity against Escherichia coli. It is filed as functional.
Test [13] deals with Staphylococcus aureus. Kind of test: Antibacterial activity against Staphylococcus aureus. The test is classed as functional.
Test [14] deals with Pseudomonas aeruginosa. Kind of test: Antibacterial activity against Pseudomonas aeruginosa. The test is classed as functional.
In test [15] the test system is Anopheles sp. Kind of test: Larvicidal activity against Anopheles at 0.5 ug/ml. It is filed as functional. The note with it: dose 0.5 µg/ml.
In test [16] the test system is Anopheles sp. Kind of test: Larvicidal activity against Anopheles at 0.1 ug/ml. The note with it: dose 0.1 µg/ml. The test is classed as functional.
Test [17] deals with Anopheles sp. Description: Larvicidal activity against Anopheles at 0.25 ug/ml. The test is classed as functional. The note with it: dose 0.25 µg/ml.
Test [18] concerns Anopheles sp. Kind of test: Larvicidal activity against Anopheles at 1 ug/ml. It is filed as functional. The note with it: dose 1.0 µg/ml.

Chain of Phospholipase A2, major isoenzyme (P00592 whole entry): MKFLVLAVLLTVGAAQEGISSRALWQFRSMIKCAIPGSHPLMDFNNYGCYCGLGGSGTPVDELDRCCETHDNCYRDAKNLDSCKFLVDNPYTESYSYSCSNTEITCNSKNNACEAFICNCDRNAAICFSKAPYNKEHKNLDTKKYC

In turn, `COc1ccc(N2CCN(CCCNC(=O)CN3C(=O)C4CCCN4c4c(C)ccnc43)CC2)cc1` (centres undefined) returned an IC50 in test [1] of 2.82 µM.
As to `O=c1[nH]c2ccccc2n2c(-c3ccc(O)cc3O)ccc12`, the IC50 stood at 1087.43 µM against Alpha amylase; 1.32 µM in [2]; 0.91 µM in test [3]; 14.8 µM in [4]; 1.05 µM on Phospholipase A2 group V; 0.61 µM in test [5].
With `COC(=O)c1ccc2c(c1)NCCN2Cc1cc(OC)c(OC)c(OC)c1`, the values for the IC50 in the test on HeLa, with HT-29 and in the test with SMMC-7721 were 0.194 µM, 0.51 µM and 0.427 µM, respectively.
`N#Cc1ccc2c(c1)N1CCCCC1C(=O)N2` (centres undefined): the midpoint of inhibition in the test on HeLa S3, the IC50, lay at 7.6 µM.
Consider `Cc1ccccc1NCC(=O)N1CC(=O)Nc2ccccc21`, for which the “diameter of the inhibition zone (DIZ)” value in the test with Salmonella typhimurium turned out to be 9 mm; with Staphylococcus aureus [6], 15 mm; in the test on Pseudomonas aeruginosa [7], 12 mm; in the test on Streptococcus pneumoniae, 10 mm; in the test on Bacillus subtilis it was 15 mm; in the test with Escherichia coli [8] it was 15 mm.
As for `O=C(CC1CCc2cc(Cl)cc3[nH]c(=O)c(=O)n1c23)Nc1ccccc1` (centres undefined), the Ki in [9] came to 0.0066 µM. Besides, the Activity in test [10] amounted to 79.3%.
The matching figures for `O=C(O)CC1CCc2cc(Cl)cc3[nH]c(=O)c(=O)n1c23` (centres undefined): 0.0051 µM and 90.3%.
In the case of `Cn1c(=O)c(Cc2ccc(C(=N)N)cc2)nc2cc(C3(N(C(=O)CC(=O)O)C4CCCC4)CC3)ccc21`, the IC50 against Trypsin worked out at 0.55 µM.
Turning to `O=C1CN(C(=O)CCl)c2ccccc2N1`, the “diameter of the inhibition zone (DIZ)” value in the test on Pseudomonas aeruginosa [7] is 15 mm; with Streptococcus pneumoniae, 16 mm.
`Cc1cc2[nH]c(=O)c(=O)n(C[C@@H](N)C(=O)O)c2cc1C` gave an EC50 in test [11] of 300 µM.
Consider `COc1ccc2c(c1)[nH]c(=O)c(=O)n2Cc1cc(OC)c(OC)c(OC)c1`, for which the IC50 in the test with HeLa amounted to 0.693 µM; in the test with HT-29, 1.48 µM; in the test on SMMC-7721 it was 1.6 µM.
As for `Cn1c(=O)c(Cc2ccc(C(=N)N)cc2)nc2cc(C3(C(=O)N4CCCC4C(=O)NCC(=O)O)CC3)ccc21` (centres undefined), the IC50 against Trypsin amounted to 2.4 µM. In other words, the single-digit micromolar range.
`O=C1CN(CCCCCN2CCCCC2)c2ccc([N+](=O)[O-])cc2N1`: the Activity with Toxoplasma gondii was found to be 92%.
With `O=c1[nH]c2cc3cccnc3c(Cl)c2nc1CBr`, the MIC in the test with Candida, in the test with Escherichia coli [12], against Staphylococcus aureus [13] and in the test on Pseudomonas aeruginosa [14] was 31.2 µg/mL (≈ 96.3 µM) each time.
As to `COc1ccc(N2CCN(CCCNC(=O)Cn3c(=O)c4cccn4c4cccnc43)CC2)cc1`, half-maximal inhibition in [1] (IC50) was put at 0.173 µM.
As for `C=Cn1c(=O)c(-c2ccccc2)nc2ccc(OC)cc21`, the Activity in the test on Anopheles sp. [15] was 100%; in the test on Anopheles sp. [16], 80%; with Anopheles sp. [17], 100%; in the test with Anopheles sp. [18], 100%.

For the origin of these results see ChEMBL document CHEMBL5113380, “Functionalized quinoxalinones as privileged structures with broad-ranging pharmacological activities” (Eur J Med Chem, 2022).
